Source: patent US20210284638A1 (Saint Louis University, priority 2018, published 2021)

How the values were obtained:
Format in all cases: binding
[1] = target: T1, Recombinant human integrin αvβ1 (Homo sapiens, UniProt P05556+P06756); test: Solid Phase Receptor Assay (SPRA) for αVβ1 function; settings: plate-bound human fibronectin
T1 construct: purchased R&D Systems 6579-AV
Procedure: B. Solid Phase Receptor Assay (SPRA) for αVβ1 Function
(§1) Wells were washed 3 times with 150 μL TBS+ and then 150 μL of blocking buffer (TBS+ with 1% bovine serum albumin, Sigma A7906) was added. The plate was incubated for 1 hr at 37° C. and then washed 3× with TBS+ buffer. […] Compounds were diluted to 20 μM and 1 μL was added to each well of the plate according to a standard template with each sample repeated in triplicate. After incubation for two hours at room temperature, the plate was washed 3× with 150 μL of TBS+ buffer. To each well, 50 μL of biotinylated anti-αV antibody (R&D Systems, BAF1219) at 1 μg/mL in TBS+/0.1% BSA were added and the plate covered and incubated for 1 hr at room temperature. After washing the plate 3× with 150 μL of TBS+ buffer, 50 μL of streptavidin-conjugated horseradish peroxidase (R&D Systems, DY998) diluted in TBS+ blocking buffer were added to the wells and the plate incubated for 20 min at room temperature. The plate was washed 3× with TBS+ buffer followed by 50 μL of TMB substrate (Sigma, T4444) added to each well in the dark and the plate incubated for 25 min at room temperature. 25 μL of 1.0 M phosphoric acid was added as a stop solution and the plates were read at 450 nm using a Spectramax plate reader.

[2] = target: T2, Recombinant human integrin α5β1 (Homo sapiens, UniProt P05556+P08648); test: Solid Phase Receptor Assay (SPRA) for α5β1 function; settings: plate-bound human fibronectin
T2 construct: purchased R&D Systems 3230-A5
T2 sequence (P08648 42-995 limits assumed): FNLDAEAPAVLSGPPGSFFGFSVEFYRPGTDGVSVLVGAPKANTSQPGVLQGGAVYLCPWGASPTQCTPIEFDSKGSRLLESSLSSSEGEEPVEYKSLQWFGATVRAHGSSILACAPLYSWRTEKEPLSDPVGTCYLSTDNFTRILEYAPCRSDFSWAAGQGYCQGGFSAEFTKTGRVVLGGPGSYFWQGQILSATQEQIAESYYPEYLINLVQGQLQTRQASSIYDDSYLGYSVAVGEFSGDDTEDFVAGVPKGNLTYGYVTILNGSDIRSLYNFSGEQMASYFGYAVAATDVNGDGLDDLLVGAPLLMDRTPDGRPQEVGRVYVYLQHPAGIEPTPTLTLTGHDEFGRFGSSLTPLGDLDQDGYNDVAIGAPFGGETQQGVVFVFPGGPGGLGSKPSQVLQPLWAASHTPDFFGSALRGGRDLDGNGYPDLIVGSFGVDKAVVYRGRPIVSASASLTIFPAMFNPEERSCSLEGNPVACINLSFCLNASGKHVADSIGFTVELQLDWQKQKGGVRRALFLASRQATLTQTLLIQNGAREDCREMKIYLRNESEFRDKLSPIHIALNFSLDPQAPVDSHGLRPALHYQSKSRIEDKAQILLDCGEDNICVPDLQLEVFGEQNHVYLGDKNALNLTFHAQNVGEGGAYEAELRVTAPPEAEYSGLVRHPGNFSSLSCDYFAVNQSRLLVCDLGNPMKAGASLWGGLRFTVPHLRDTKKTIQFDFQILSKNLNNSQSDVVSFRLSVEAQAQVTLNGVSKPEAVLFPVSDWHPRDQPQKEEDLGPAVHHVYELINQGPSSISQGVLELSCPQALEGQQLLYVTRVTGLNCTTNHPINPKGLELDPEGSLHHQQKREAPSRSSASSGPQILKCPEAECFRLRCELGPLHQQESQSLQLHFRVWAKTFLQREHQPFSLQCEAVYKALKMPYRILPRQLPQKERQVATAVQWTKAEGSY
T2 sequence (P05556 21-728 limits assumed): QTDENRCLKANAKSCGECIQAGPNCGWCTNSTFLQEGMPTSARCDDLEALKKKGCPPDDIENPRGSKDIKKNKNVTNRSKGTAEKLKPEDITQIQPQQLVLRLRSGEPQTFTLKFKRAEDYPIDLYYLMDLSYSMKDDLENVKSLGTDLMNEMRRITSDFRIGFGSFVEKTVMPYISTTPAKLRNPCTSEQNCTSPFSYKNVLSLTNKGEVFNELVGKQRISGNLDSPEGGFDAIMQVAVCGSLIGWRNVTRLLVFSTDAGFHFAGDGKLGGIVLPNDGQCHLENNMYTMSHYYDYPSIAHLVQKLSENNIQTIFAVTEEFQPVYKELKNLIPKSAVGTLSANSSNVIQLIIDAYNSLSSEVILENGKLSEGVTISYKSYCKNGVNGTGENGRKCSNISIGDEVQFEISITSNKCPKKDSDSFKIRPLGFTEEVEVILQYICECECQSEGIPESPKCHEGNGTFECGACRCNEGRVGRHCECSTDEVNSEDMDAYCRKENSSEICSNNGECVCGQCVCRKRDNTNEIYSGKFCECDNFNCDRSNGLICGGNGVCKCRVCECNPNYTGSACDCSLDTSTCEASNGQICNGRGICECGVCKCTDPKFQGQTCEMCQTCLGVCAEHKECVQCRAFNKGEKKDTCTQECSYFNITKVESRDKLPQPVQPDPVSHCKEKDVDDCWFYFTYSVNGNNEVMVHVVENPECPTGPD
Procedure: A. Solid Phase Receptor Assay (SPRA) for α5β1 Function
as §1, with “μM and then 1 μL” for “μM and 1 μL”, “of biotinylated anti-α5 antibody (R&D” for “of biotinylated anti-αV antibody (R&D”, “(R&D Systems, BAF1864) at 0.5” for “(R&D Systems, BAF1219) at 1”, “BAF1864) at 0.5 μg/mL in” for “BAF1219) at 1 μg/mL in”, “μL of room temperature TMB substrate” for “μL of TMB substrate”

[3] = target: T3, Recombinant human integrin αVβ5 (Homo sapiens, UniProt P06756+P18084); test: Solid Phase Receptor Assay (SPRA) for αVβ5 function; settings: plate-bound human vitronectin
T3 construct: purchased R&D Systems 2528-AV
T3 sequence (P06756 31-992 limits assumed): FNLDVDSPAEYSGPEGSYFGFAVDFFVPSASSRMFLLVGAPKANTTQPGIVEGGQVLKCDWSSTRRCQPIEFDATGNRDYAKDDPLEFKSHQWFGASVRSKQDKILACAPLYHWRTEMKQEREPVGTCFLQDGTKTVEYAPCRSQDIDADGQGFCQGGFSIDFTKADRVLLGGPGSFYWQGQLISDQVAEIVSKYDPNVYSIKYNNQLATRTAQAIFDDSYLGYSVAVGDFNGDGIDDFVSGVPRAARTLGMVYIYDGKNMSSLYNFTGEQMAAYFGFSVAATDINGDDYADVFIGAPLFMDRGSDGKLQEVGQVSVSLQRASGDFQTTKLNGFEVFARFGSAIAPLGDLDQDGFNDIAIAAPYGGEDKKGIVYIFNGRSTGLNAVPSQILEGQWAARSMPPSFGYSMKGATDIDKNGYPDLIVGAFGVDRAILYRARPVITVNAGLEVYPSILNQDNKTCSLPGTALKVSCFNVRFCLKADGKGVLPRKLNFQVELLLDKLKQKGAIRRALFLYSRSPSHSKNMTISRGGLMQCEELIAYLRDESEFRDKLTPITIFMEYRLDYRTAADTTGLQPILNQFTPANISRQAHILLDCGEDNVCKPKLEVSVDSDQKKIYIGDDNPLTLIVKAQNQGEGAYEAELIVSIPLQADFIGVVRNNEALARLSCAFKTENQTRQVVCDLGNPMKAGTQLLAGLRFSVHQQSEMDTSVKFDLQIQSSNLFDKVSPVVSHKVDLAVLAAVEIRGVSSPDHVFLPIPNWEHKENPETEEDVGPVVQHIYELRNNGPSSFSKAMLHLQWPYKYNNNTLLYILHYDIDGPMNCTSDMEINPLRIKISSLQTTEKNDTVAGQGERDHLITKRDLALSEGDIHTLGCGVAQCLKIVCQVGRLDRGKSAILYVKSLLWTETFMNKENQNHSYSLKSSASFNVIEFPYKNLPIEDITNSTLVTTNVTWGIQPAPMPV
T3 sequence (P18084 24-719 limits assumed): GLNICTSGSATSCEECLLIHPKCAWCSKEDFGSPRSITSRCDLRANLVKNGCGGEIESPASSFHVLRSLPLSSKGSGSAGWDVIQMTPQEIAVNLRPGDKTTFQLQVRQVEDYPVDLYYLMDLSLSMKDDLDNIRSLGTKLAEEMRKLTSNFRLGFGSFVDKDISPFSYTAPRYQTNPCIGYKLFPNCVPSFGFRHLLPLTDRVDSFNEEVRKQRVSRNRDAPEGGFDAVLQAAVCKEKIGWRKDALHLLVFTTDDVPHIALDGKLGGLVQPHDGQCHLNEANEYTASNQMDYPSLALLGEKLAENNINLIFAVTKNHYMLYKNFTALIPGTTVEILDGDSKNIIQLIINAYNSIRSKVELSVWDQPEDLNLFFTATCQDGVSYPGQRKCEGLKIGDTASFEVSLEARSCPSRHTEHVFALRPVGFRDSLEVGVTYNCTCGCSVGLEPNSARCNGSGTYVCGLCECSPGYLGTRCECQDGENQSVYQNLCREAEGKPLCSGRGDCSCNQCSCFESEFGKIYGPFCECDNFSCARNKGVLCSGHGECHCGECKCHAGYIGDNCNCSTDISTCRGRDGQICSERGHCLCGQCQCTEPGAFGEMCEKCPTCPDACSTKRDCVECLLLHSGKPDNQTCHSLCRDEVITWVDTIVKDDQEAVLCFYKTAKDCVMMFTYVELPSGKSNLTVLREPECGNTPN
Procedure: D. Solid Phase Receptor Assay (SPRA) for αVβ5 Function
as §1, with “μM and then 1 μL” for “μM and 1 μL”, “well, 50 μl of biotinylated” for “well, 50 μL of biotinylated”, “BAF1219) at 0.5 μg/mL in” for “BAF1219) at 1 μg/mL in”, “TBS+/0.1% BSA at 0.5 μg/mL were added” for “TBS+/0.1% BSA were added”, “TMB substrate (Sigma T4444) added” for “TMB substrate (Sigma, T4444) added”, “incubated for 5 min at” for “incubated for 25 min at”

[4] = target: T4, Recombinant human integrin αVβ6 (Homo sapiens, UniProt P06756+P18564); test: Solid Phase Receptor Assay (SPRA) for αVβ6 function; settings: plate-bound human LAP
T4 construct: purchased R&D Systems 3817-AV
T4 sequence (P06756 31-992 limits assumed): as the sequence (P06756 31-992 limits assumed) above
T4 sequence (P18564 22-707 limits assumed): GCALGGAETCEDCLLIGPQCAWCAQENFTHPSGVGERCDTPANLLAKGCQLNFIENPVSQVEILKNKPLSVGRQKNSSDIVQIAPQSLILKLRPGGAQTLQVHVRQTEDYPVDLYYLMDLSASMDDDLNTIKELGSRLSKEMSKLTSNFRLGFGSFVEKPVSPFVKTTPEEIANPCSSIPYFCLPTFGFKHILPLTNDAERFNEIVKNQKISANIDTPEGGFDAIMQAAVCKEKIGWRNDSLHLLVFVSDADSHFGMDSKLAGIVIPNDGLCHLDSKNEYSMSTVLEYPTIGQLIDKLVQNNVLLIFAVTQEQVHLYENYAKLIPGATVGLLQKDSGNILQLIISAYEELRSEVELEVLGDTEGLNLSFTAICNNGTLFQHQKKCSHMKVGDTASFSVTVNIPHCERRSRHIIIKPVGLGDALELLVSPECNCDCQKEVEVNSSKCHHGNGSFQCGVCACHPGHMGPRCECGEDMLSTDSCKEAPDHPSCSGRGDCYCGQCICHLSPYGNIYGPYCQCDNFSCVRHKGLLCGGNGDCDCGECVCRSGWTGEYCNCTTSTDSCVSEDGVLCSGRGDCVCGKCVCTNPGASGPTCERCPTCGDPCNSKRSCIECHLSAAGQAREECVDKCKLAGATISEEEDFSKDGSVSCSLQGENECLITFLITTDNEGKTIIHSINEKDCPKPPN
Procedure: E. Solid Phase Receptor Assay (SPRA) for αVβ6 Function
Wells were washed 3 times with 150 μL TBS+, and then 150 μL of blocking buffer (TBS+ with 1% bovine serum albumin, Sigma A7906) was added. The plate was incubated for 1 hr at 37° C., and then washed 3× with TBS+ buffer. […] Compounds were diluted to 20 μM and then 1 μL was added to each well of the plate according to a standard template with each sample repeated in triplicate. After incubation for two hours at room temperature, the plate was washed 3× with 150 μL of TBS+ buffer. To each well, 50 μL of biotinylated anti-αV antibody (R&D Systems, BAF1219) at 0.5 μg/mL in TBS+/0.1% BSA were added and the plate was covered and incubated for 1 hr at room temperature. After washing the plate 3× with 150 μL of TBS+ buffer, 50 μL of streptavidin-conjugated horseradish peroxidase (R&D Systems, DY998) diluted in TBS+ blocking buffer were added to the wells and the plate incubated for 20 min at room temperature. The plate was washed 3× with TBS+ buffer followed by 50 μL of TMB substrate (Sigma T4444) added to each well in the dark and the plate incubated for 10 min at room temperature. 25 μL of 1.0 M phosphoric acid was added as a stop solution and the plates were read at 450 nm using a Spectramax plate reader.

T1 sequence (P06756 31-992 limits assumed): as the sequence (P06756 31-992 limits assumed) above
T1 sequence (P05556 21-728 limits assumed): as the sequence (P05556 21-728 limits assumed) above

Compound | IC50 [1] [µM] | IC50 [2] [µM] | IC50 [3] [µM] | IC50 [4] [µM]
Cn1nc(CC(CC(=O)O)c2cc(C(C)(C)C)cc(C(C)(C)C#N)c2)cc1OCCc1ccc2c(n1)NCCC2 (stereo not drawn) [Example 9, 3-[3-tert-butyl-5-(1-cyano-1-methyl-ethyl)phenyl]-4-[1-methyl-5-[2-(5,6,7,8-tetrahydro-1,8-naphthyridin-2-yl)ethoxy]pyrazol-3-yl]butanoic acid] | 0.002 | 0.001 | 0.032 | 0.15
COc1c(C(C)(C)C)cc(C(CC(=O)O)Cc2cc(OCCc3ccc4c(n3)NCCC4)n(C)n2)cc1C(C)(C)C (stereo not drawn) [Example 10, 3-(3,5-di-tert-butyl-4-methoxyphenyl)-4-(1-methyl-5-(2-(5,6,7,8-tetrahydro-1,8-naphthyridin-2-yl)ethoxy)-1H-pyrazol-3-yl)butanoic acid] | 0.004 | 0.015 | 0.084 | 0.13
COc1c(C(CC(=O)O)Cc2cc(OCCc3ccc4c(n3)NCCC4)n(C)n2)cc(C(C)(C)C)cc1C(C)(C)C (stereo not drawn) [Example 11, 3-(3,5-di-tert-butyl-2-methoxyphenyl)-4-(1-methyl-5-(2-(5,6,7,8-tetrahydro-1,8-naphthyridin-2-yl)ethoxy)-1H-pyrazol-3-yl)butanoic acid] | 0.8 | 15 | 17 | 11
COc1c(Br)cc(C(C)(C)C)cc1C(CC(=O)O)Cc1cc(OCCc2ccc3c(n2)NCCC3)n(C)n1 (stereo not drawn) [Example 12, 3-(3-bromo-5-(tert-butyl)-2-methoxyphenyl)-4-(1-methyl-5-(2-(5,6,7,8-tetrahydro-1,8-naphthyridin-2-yl)ethoxy)-1H-pyrazol-3-yl)butanoic acid] | 0.013 | 0.18 | 0.16 | 0.18
COc1cc(C(CC(=O)O)Cc2cc(OCCc3ccc4c(n3)NCCC4)n(C)n2)cc(C23CC4CC(CC(C4)C2)C3)c1OCc1ccccc1 (stereo not drawn) [Example 13, 3-[3-(1-adamantyl)-4-benzyloxy-5-methoxy-phenyl]-4-[1-methyl-5-[2-(5,6,7,8-tetrahydro-1,8-naphthyridin-2-yl)ethoxy]pyrazol-3-yl]butanoic acid] | 0.021 | 0.21 | 0.14 | 0.17
COc1cc(C(CC(=O)O)Cc2cc(OCCc3ccc4c(n3)NCCC4)n(C)n2)cc(C23CC4CC(CC(C4)C2)C3)c1OC (stereo not drawn) [Example 14, 3-[3-(1-adamantyl)-4,5-dimethoxy-phenyl]-4-[1-methyl-5-[2-(5,6,7,8-tetrahydro-1,8-naphthyridin-2-yl)ethoxy]pyrazol-3-yl]butanoic acid] | 0.009 | 0.047 | 0.009 | 0.17
Cn1nc(CC(CC(=O)O)c2cc3c(c(C(C)(C)C)c2)OCO3)cc1OCCc1ccc2c(n1)NCCC2 (stereo not drawn) [Example 15] | 0.003 | 0.028 | 0.0002 | 0.06
Cn1nc(CC(CC(=O)O)c2cc3c(c(C(C)(C)C)c2)OCCO3)cc1OCCc1ccc2c(n1)NCCC2 (stereo not drawn) [Example 16, 3-(8-(tert-butyl)-2,3-dihydrobenzo[b][1,4]dioxin-6-yl)-4-(1-methyl −5-(2-(5,6,7,8-tetrahydro-1,8-naphthyridin-2-yl)ethoxy)-1H-pyrazol-3-yl) butanoic acid] | 0.005 | 0.018 | 0.0007 | 0.019
Cn1nc(CC(CC(=O)O)c2cc(C(C)(C)C)ccc2Br)cc1OCCc1ccc2c(n1)NCCC2 (stereo not drawn) [Example 17, 3-(2-bromo-5-(tert-butyl)phenyl)-4-(1-methyl-5-(2-(5,6,7,8-tetrahydro-1,8-naphthyridin-2-yl)ethoxy)-1H-pyrazol-3-yl)butanoic acid] | 0.014 | 0.12 | 0.23 | 1.9
Cn1nc(CC(CC(=O)O)c2cc(C(C)(C)C)ccc2C#N)cc1OCCc1ccc2c(n1)NCCC2 (stereo not drawn) [Example 18, 3-(5-(tert-butyl)-2-cyanophenyl)-4-(1-methyl-5-(2-(5,6,7,8-tetrahydro-1,8-naphthyridin-2-yl)ethoxy)-1H-pyrazol-3-yl)butanoic acid] | 0.005 | 0.004 | 0.004 | 0.012
Cn1nc(CC(CC(=O)O)c2cc(C(C)(C)C)ccc2F)cc1OCCc1ccc2c(n1)NCCC2 (stereo not drawn) [Example 19, 3-(5-(tert-butyl)-2-fluorophenyl)-4-(1-methyl-5-(2-(5,6,7,8-tetrahydro-1,8-naphthyridin-2-yl)ethoxy)-1H-pyrazol-3-yl)butanoic acid] | 0.007 | 0.01 | 0.0006 | 0.18
Cn1nc(CC(CC(=O)O)c2cc(C(C)(C)C)ccc2OC(F)(F)F)cc1OCCc1ccc2c(n1)NCCC2 (stereo not drawn) [Example 20, 3-(5-(tert-butyl)-2-(trifluoromethoxy)phenyl)-4-(1-methyl-5-(2-(5,6,7,8-tetrahydro-1,8-naphthyridin-2-yl)ethoxy)-1H-pyrazol-3-yl)butanoic acid] | 0.006 | 0.009 | 0.59 | 0.22
COc1ccc(C2(C(F)F)CC2)cc1C(CC(=O)O)Cc1cc(OCCc2ccc3c(n2)NCCC3)n(C)n1 (stereo not drawn) [Example 21, 3-[5-[1-(difluoromethyl)cyclopropyl]-2-methoxy-phenyl]-4-[1-methyl-5-[2-(5,6,7,8-tetrahydro-1,8-naphthyridin-2-yl)ethoxy]pyrazol-3-yl]butanoic acid] | 0.01 | 0.029 | 0.29 | 0.32
COc1ccc(C(C)(C)O)cc1C(CC(=O)O)Cc1cc(OCCc2ccc3c(n2)NCCC3)n(C)n1 (stereo not drawn) [Example 22, 3-(5-(2-hydroxypropan-2-yl)-2-methoxyphenyl)-4-(1-methyl-5-(2-(5,6,7,8-tetrahydro-1,8-naphthyridin-2-yl)ethoxy)-1H-pyrazol-3-yl)butanoic acid] | 0.003 | 0.002 | 0.01 | 0.16
COc1ccc(C2COC2)cc1C(CC(=O)O)Cc1cc(OCCc2ccc3c(n2)NCCC3)n(C)n1 (stereo not drawn) [Example 23, 3-[2-methoxy-5-(oxetan-3-yl)phenyl]-4-[1-methyl-5-[2-(5,6,7,8-tetrahydro-1,8-naphthyridin-2-yl)ethoxy]pyrazol-3-yl]butanoic acid] | 0.008 | 0.036 | 0.029 | 0.14
